Measured values as given in patent US10246486B2, “Macrocyclic inhibitors of flaviviridae viruses” (Gilead Sciences, Inc., priority 2012, dated 2019).
Read-outs that look alike come from different tables or passages of the source.

Assays:
[1] = rcm bond, Hoveyda-Grubbs 2nd generation catalyst
[2] = tested on: HCV replicon 1a (human hepatoma Huh-7 cell line harboring a HCV replicon); assay: microbe, parasite or virus in culture; type: cell-based; settings: for inhibition at 1 µM: Hepatitis C virus, Huh-7, 72 h, read-out: Replicon 1a % inhibition at 1 μm

CC(C)[C@@H]1NC(=O)CC=Cc2ccc3ccc(cc3n2)[C@@H](C)OC(=O)[C@@H]2CCCN(N2)C(=O)[C@H](C)NC1=O
ring closure, yield of all isomers ([1]; from C=CCC(=O)N[C@H](C(=O)N[C@@H](C)C(=O)N1CCC[C@@H](C(=O)O[C@H](C)c2ccc3ccc(C=C)nc3c2)N1)C(C)C, 1,2-dichloroethane, 18.2 mM, 100.0 °C, 1.0 h): 3%

CC(C)[C@@H]1NC(=O)C(C)(C)c2cccc(c2)-c2cc3cc(ccc3cn2)[C@@H](C)OC(=O)[C@@H]2CCCN(N2)C(=O)[C@H](C)NC1=O [Compound 67]
inhibition at 1 µM [2]: 97%

CO[C@@H]1CCC=Cc2cccc(c2)C2CCCCN2C(=O)[C@@H]2CCCN(N2)C(=O)[C@H](C)NC(=O)[C@H](C(C)C)NC(=O)[C@@H]1C (stereo partly shown)
ring closure, yield of all isomers ([1]; from C=CCC[C@@H](OC)[C@@H](C)C(=O)N[C@H](C(=O)N[C@@H](C)C(=O)N1CCC[C@@H](C(=O)N2CCCCC2c2cccc(C=C)c2)N1)C(C)C, 1,2-dichloroethane, 3.05 mM, 84.0 °C, 2.5 h): 18%

CC(C)[C@@H]1NC(=O)CC=Cc2cc3cc(ccc3cn2)[C@@H](C)NC(=O)[C@@H]2CCCN(N2)C(=O)[C@H](C)NC1=O
ring closure, yield of all isomers ([1]; from C=CCC(=O)N[C@H](C(=O)N[C@@H](C)C(=O)N1CCC[C@@H](C(=O)N[C@H](C)c2ccc3cnc(C=C)cc3c2)N1)C(C)C, toluene, 3.86 mM, 111.0 °C, 3.0 h): 2.2%

C[C@@H]1NC(=O)[C@H](Cc2ccccc2)NC(=O)CC=Cc2cc3cc(ccc3cn2)[C@@H](C)OC(=O)[C@@H]2CCCN(N2)C1=O
ring closure, yield of all isomers ([1]; from C=Cc1cc2cc([C@@H](C)OC(=O)[C@@H]3CCCN(C(=O)[C@H](C)NC(=O)[C@H](Cc4ccccc4)NC(=O)C/C=C/C)N3)ccc2cn1, chlorobenzene, 4.96 mM, 110.0 °C, 3.0 h): 12%

CO[C@@H]1/C=C/COc2cccc(c2)[C@@H](C(C)C)NC(=O)[C@@H]2CCCN(N2)C(=O)[C@H](C)NC(=O)[C@H](C(C)C)NC(=O)[C@@H]1C [Example 37, (E)-(2R,5S,11S,14S,17R,18R)-2,14-Diisopropyl-18-methoxy-11,17-di methyl-22-oxa-3,9,12,15,28-pentaaza-tricyclo[21.3.1.1*5,9]octacosa-1(27),19,23,25-tetraene-4,10,13,16-tetraone]
Replicon 1a % inhibition at 1 μm [2]: 76%

CC(C)[C@@H]1NC(=O)[C@H](C)C/C=C/COc2ccc(F)c(c2)[C@@H](C)OC(=O)[C@@H]2CCCN(N2)C(=O)[C@H](C)NC1=O [Example 35]
inhibition at 1 µM [2]: 94%

C[C@@H]1NC(=O)[C@H](CO[Si](C)(C)C(C)(C)C)NC(=O)CC=Cc2cc3cc(ccc3cn2)[C@@H](C)OC(=O)[C@@H]2CCCN(N2)C1=O
ring closure, yield of all isomers ([1]; from C=Cc1cc2cc([C@@H](C)OC(=O)[C@@H]3CCCN(C(=O)[C@H](C)NC(=O)[C@H](CO[Si](C)(C)C(C)(C)C)NC(=O)C/C=C/C)N3)ccc2cn1, toluene, 2.98 mM, 105.0 °C, 0.58 h): 38%

CC(C)[C@@H]1NC(=O)[C@H](C)/C=C/c2ccc3ccc(nc3c2)[C@@H](C)OC(=O)[C@@H]2CCCN(N2)C(=O)[C@H](C)NC1=O [Example 26]
Replicon 1a % inhibition at 1 μm [2]: 99%

CC(C)[C@@H]1NC(=O)[C@H](C)CC=CCOc2ccc(F)c(c2)[C@@H](C)OC(=O)[C@@H]2CCCN(N2)C(=O)[C@H](C)NC1=O
ring closure, yield of all isomers ([1]; from C=CCOc1ccc(F)c([C@@H](C)OC(=O)[C@@H]2CCCN(C(=O)[C@H](C)NC(=O)[C@@H](NC(=O)[C@H](C)CC=C)C(C)C)N2)c1, 1,2-dichloroethane, 3.0 mM, 83.0 °C, 2.0 h): 20%

CO[C@@H]1C=Cc2cc3cc(ccc3cn2)[C@@H](C)OC(=O)C2(C)CCCN(N2)C(=O)[C@H](C)NC(=O)[C@H](C(C)C)NC(=O)[C@@H]1C (stereo partly shown)
ring closure, yield of all isomers ([1]; from C=Cc1cc2cc([C@@H](C)OC(=O)C3(C)CCCN(C(=O)[C@H](C)NC(=O)[C@@H](NC(=O)[C@H](C)[C@@H](/C=C/C)OC)C(C)C)N3)ccc2cn1, toluene, 3.06 mM, 111.0 °C, 3.5 h): 21%

CC(C)[C@@H]1NC(=O)CC=Cc2cc3cc(ccc3cn2)[C@@H](C(F)(F)F)NC(=O)[C@@H]2CCCN(N2)C(=O)[C@H](C)NC1=O
ring closure, yield of all isomers ([1]; from C=CCC(=O)N[C@H](C(=O)N[C@@H](C)C(=O)N1CCC[C@@H](C(=O)N[C@@H](c2ccc3cnc(C=C)cc3c2)C(F)(F)F)N1)C(C)C, toluene, 3.04 mM, 120.0 °C, 2.83 h): 3%

CC(C)[C@@H]1NC(=O)[C@H](C)[C@H](O[Si](C)(C)C(C)(C)C)CCC=Cc2cccc(c2)[C@@H](C)NC(=O)[C@@H]2CCCN(N2)C(=O)[C@H](C)NC1=O
ring closure, yield of all isomers ([1]; from C=CCC[C@@H](O[Si](C)(C)C(C)(C)C)[C@@H](C)C(=O)N[C@H](C(=O)N[C@@H](C)C(=O)N1CCC[C@@H](C(=O)N[C@H](C)c2cccc(C=C)c2)N1)C(C)C, 1,2-dichloroethane, 2.8 mM, 80.0 °C, 1.0 h): 43%

CC[C@@H]1C=Cc2cc3cc(ccc3cn2)[C@@H](C)OC(=O)[C@@H]2CCCN(N2)C(=O)[C@H](C)NC(=O)[C@H](C(C)C)NC1=O
ring closure, yield of all isomers ([1]; from C=Cc1cc2cc([C@@H](C)OC(=O)[C@@H]3CCCN(C(=O)[C@H](C)NC(=O)[C@@H](NC(=O)[C@@H](/C=C/C)CC)C(C)C)N3)ccc2cn1, toluene, 3.0 mM, 120.0 °C, 4.0 h): 1%

CC(C)[C@@H]1NC(=O)CCCC=Cc2cc3cc(ccc3cn2)[C@@H](C)OC(=O)[C@@H]2CCCN(N2)C(=O)[C@H](C)NC1=O
ring closure, yield of all isomers ([1]; from C=CCCCC(=O)N[C@H](C(=O)N[C@@H](C)C(=O)N1CCC[C@@H](C(=O)O[C@H](C)c2ccc3cnc(C=C)cc3c2)N1)C(C)C, toluene, 2.41 mM, 111.0 °C, 0.5 h): 63%

CO[C@@H]1C=Cc2cc3cc(ccc3cn2)[C@@H](C)NC(=O)[C@@H]2CCCN(N2)C(=O)[C@H](C)NC(=O)[C@H](C(C)C)NC(=O)[C@@H]1C
ring closure, yield of all isomers ([1]; from C=Cc1cc2cc([C@@H](C)NC(=O)[C@@H]3CCCN(C(=O)[C@H](C)NC(=O)[C@@H](NC(=O)[C@H](C)[C@@H](/C=C/C)OC)C(C)C)N3)ccc2cn1, toluene, 3.33 mM, 110.0 °C, 8.0 h): 26%

C[C@@H]1NC(=O)[C@H](CCc2ccccc2)NC(=O)CC=Cc2cc3cc(ccc3cn2)[C@@H](C)OC(=O)[C@@H]2CCCN(N2)C1=O
ring closure, yield of all isomers ([1]; from C=Cc1cc2cc([C@@H](C)OC(=O)[C@@H]3CCCN(C(=O)[C@H](C)NC(=O)[C@H](CCc4ccccc4)NC(=O)C/C=C/C)N3)ccc2cn1, chlorobenzene, 4.81 mM, 110.0 °C, 3.5 h): 12%

CC1C=Cc2cc3cc(ccc3cn2)[C@@H](C)OC(=O)[C@@H]2CCCN(N2)C(=O)[C@H](C)NC(=O)[C@H](C(C)C)NC1=O (stereo partly shown)
ring closure, yield of all isomers ([1]; from C=Cc1cc2cc([C@@H](C)OC(=O)[C@@H]3CCCN(C(=O)[C@H](C)NC(=O)[C@@H](NC(=O)C(C)C=C)C(C)C)N3)ccc2cn1, toluene, 2.6 mM, 111.0 °C, 3.0 h): 1%

CC(C)[C@@H]1NC(=O)CCCCC=Cc2cc3cc(ccc3cn2)[C@@H](C)OC(=O)[C@@H]2CCCN(N2)C(=O)[C@H](C)NC1=O
ring closure, yield of all isomers ([1]; from C=CCCCCC(=O)N[C@H](C(=O)N[C@@H](C)C(=O)N1CCC[C@@H](C(=O)O[C@H](C)c2ccc3cnc(C=C)cc3c2)N1)C(C)C, toluene, 2.16 mM, 111.0 °C, 0.5 h): 31%

C[C@@H]1NC(=O)[C@H](C2CCCCC2)NC(=O)CC=Cc2cc3cc(ccc3cn2)[C@@H](C)OC(=O)[C@@H]2CCCN(N2)C1=O
ring closure, yield of all isomers ([1]; from C=Cc1cc2cc([C@@H](C)OC(=O)[C@@H]3CCCN(C(=O)[C@H](C)NC(=O)[C@@H](NC(=O)C/C=C/C)C4CCCCC4)N3)ccc2cn1, toluene, 5.0 mM, 110.0 °C, 2.0 h): 7%

C[C@@H]1NC(=O)[C@H](CCn2cc(CO)nn2)NC(=O)C(C)(C)/C=C/c2cc3cc(ccc3cn2)[C@@H](C)OC(=O)[C@@H]2CCCN(N2)C1=O [Compound 72]
Replicon 1a % inhibition at 1 μm [2]: 0%

CC(C)[C@@H]1NC(=O)[C@H](C)CC=Cc2cc3cc(ccc3cn2)[C@@H](C)OC(=O)[C@@H]2CCCN(N2)C(=O)[C@H](C)NC1=O
ring closure, yield of all isomers ([1]; from C=CC[C@@H](C)C(=O)N[C@H](C(=O)N[C@@H](C)C(=O)N1CCC[C@@H](C(=O)O[C@H](C)c2ccc3cnc(C=C)cc3c2)N1)C(C)C, toluene, 3.0 mM, 120.0 °C, 3.0 h): 22%

CC(C)[C@@H]1NC(=O)CCC(C)(C)CC=Cc2cccc(c2)[C@@H](C)NC(=O)[C@@H]2CCCN(N2)C(=O)[C@H](C)NC1=O
ring closure, yield of all isomers ([1]; from C=CCC(C)(C)CCC(=O)N[C@H](C(=O)N[C@@H](C)C(=O)N1CCC[C@@H](C(=O)N[C@H](C)c2cccc(C=C)c2)N1)C(C)C, 1,2-dichloroethane, 3.38 mM, 80.0 °C, 1.0 h): 8%

CC(C)[C@@H]1NC(=O)C(C)(C)/C=C/c2ccc3ccc(nc3c2)[C@@H](C(F)(F)F)NC(=O)[C@@H]2CCCN(N2)C(=O)[C@H](C)NC1=O [Example 13]
Replicon 1a % inhibition at 1 μm [2]: 87%

CO[C@@H]1/C=C/c2cc3cc(ccc3cn2)[C@@H](C)OC(=O)[C@@]2(C)CCCN(N2)C(=O)[C@H](C)NC(=O)[C@H](C(C)C)NC(=O)[C@@H]1C [Example 33]
inhibition at 1 µM [2]: 14%

CO[C@@H]1CCC=Cc2ccc3c(c2)[C@@H](CC3)N(C)C(=O)[C@@H]2CCCN(N2)C(=O)[C@H](C)NC(=O)[C@H](C(C)C)NC(=O)[C@@H]1C
ring closure, yield of all isomers ([1]; from C=CCC[C@@H](OC)[C@@H](C)C(=O)N[C@H](C(=O)N[C@@H](C)C(=O)N1CCC[C@@H](C(=O)N(C)[C@@H]2CCc3ccc(C=C)cc32)N1)C(C)C, 1,2-dichloroethane, 3.9 mM, 83.0 °C, 1.5 h): 5%

C[C@@H]1NC(=O)[C@H]([C@@H](C)O[Si](C)(C)C(C)(C)C)NC(=O)CC=Cc2cc3cc(ccc3cn2)[C@@H](C)OC(=O)[C@@H]2CCCN(N2)C1=O
ring closure, yield of all isomers ([1]; from C=Cc1cc2cc([C@@H](C)OC(=O)[C@@H]3CCCN(C(=O)[C@H](C)NC(=O)[C@@H](NC(=O)C/C=C/C)[C@@H](C)O[Si](C)(C)C(C)(C)C)N3)ccc2cn1, toluene, 2.94 mM, 105.0 °C, 1.0 h): 42%

CC(C)[C@@H]1NC(=O)CC=Cc2cc3cc(ccc3cn2)[C@@H](C)OC(=O)[C@@H]2CCCN(N2)C(=O)[C@H](C)NC1=O
ring closure, yield of all isomers ([1]; from C=Cc1cc2cc([C@@H](C)OC(=O)[C@@H]3CCCN(C(=O)[C@H](C)NC(=O)[C@@H](NC(=O)C/C=C/C)C(C)C)N3)ccc2cn1, toluene, 3.33 mM, 110.0 °C, 1.0 h): 23.5%
